This note sets out measurements from ChEMBL document CHEMBL4613311, “Synthesis of Novel G Factor or Chloroquine-Artemisinin Hybrids and Conjugates with Potent Antiplasmodial Activity” (ACS Med Chem Lett, 2020).

The test system of series [1] is Plasmodium falciparum. The series can be described thus: Antiplasmodial activity against chloroquine resistant Plasmodium falciparum FcB1/Columbia infected in human erythrocytes preincubated for 24 hrs followed by [3H]-hypoxanthine addition and measured after 24 hrs by liquid scintillation analysis. The format is functional, organism-based.
Series [2] is described as follows: Selectivity index, ratio of IC50 for human AB943 cells to IC50 for antiplasmodial activity against chloroquine resistant Plasmodium falciparum FcB1/Colombia infected in human erythrocytes. It counts as toxicity, cell-based. The following applies: read-out: Ratio IC50.
Series [3] relates to Plasmodium falciparum. The series can be described thus: Antiplasmodial activity against chloroquine resistant Plasmodium falciparum FcB1/Columbia infected in human erythrocytes at 10 nM preincubated for 24 hrs followed by [3H]-hypoxanthine addition and measured after 24 hrs by liquid scintillation analysis relative to control. The format is functional.

Compound `COC12OOC3(C=C1C(=O)C(C)(C)C(=O)C2(C)C)CCN(C(=O)CCC(=O)NCCCCN(CCCNC(=O)CCC(=O)N1CCC2(C=C4C(=O)C(C)(C)C(=O)C(C)(C)C4(OC)OO2)CC1)C(=O)CCC(=O)NCCNc1ccnc2cc(Cl)ccc12)CC3` (stereo not drawn) showed an IC50 in series [1] greater than 167 nM. For `COC12OOC3(C=C1C(=O)C(C)(C)C(=O)C2(C)C)CCN(C(=O)CCC(=O)N(CCCCNC(=O)CC[C@H]1O[C@@H]2O[C@@]4(C)CC[C@H]5[C@H](C)CC[C@@H]([C@H]1C)[C@@]25OO4)CCCCNC(=O)CC[C@H]1O[C@@H]2O[C@@]4(C)CC[C@H]5[C@H](C)CC[C@@H]([C@H]1C)[C@@]25OO4)CC3` (stereo partly drawn), in series [2], the selectivity ratio was determined as 983. The same compound showed an IC50 in series [1] of 10.6 nM. Compound `COC12OOC3(C=C1C(=O)C(C)(C)C(=O)C2(C)C)CCNCC3` (stereo not drawn) gave an IC50 in series [1] greater than 250 nM. For the compound `C[C@H]1[C@@H](CCC(=O)NCCNc2ccnc3cc(Cl)ccc23)O[C@@H]2O[C@@]3(C)CC[C@H]4[C@H](C)CC[C@@H]1[C@@]24OO3`, at 0.01 µM the inhibition in series [3] was 11%. On to `COC12OOC3(C=C1C(=O)C(C)(C)C(=O)C2(C)C)CCN(C(=O)CCC(=O)N(CCCCNC(=O)CC[C@H]1O[C@@H]2O[C@@]4(C)CC[C@H]5[C@H](C)CC[C@@H]([C@H]1C)[C@@]25OO4)CCCNC(=O)CC[C@H]1O[C@@H]2O[C@@]4(C)CC[C@H]5[C@H](C)CC[C@@H]([C@H]1C)[C@@]25OO4)CC3` (stereo partly drawn), for which the selectivity ratio in series [2] amounted to 2110. The compound further yielded an IC50 in series [1] of 8.4 nM.

As for `C[C@H]1[C@@H](CCC(=O)NCCCCN(CCCCNC(=O)CC[C@H]2O[C@@H]3O[C@@]4(C)CC[C@H]5[C@H](C)CC[C@@H]([C@H]2C)[C@@]35OO4)C(=O)CCC(=O)NCCNc2ccnc3cc(Cl)ccc23)O[C@@H]2O[C@@]3(C)CC[C@H]4[C@H](C)CC[C@@H]1[C@@]24OO3`, in series [2], the selectivity ratio was found to be 328. For the same compound, 52.3 nM corresponded to half-maximal inhibition in series [1] (IC50).

With `C[C@H]1[C@@H](CCC(=O)NCCCCN(CCCNC(=O)CC[C@H]2O[C@@H]3O[C@@]4(C)CC[C@H]5[C@H](C)CC[C@@H]([C@H]2C)[C@@]35OO4)C(=O)CCC(=O)NCCNc2ccnc3cc(Cl)ccc23)O[C@@H]2O[C@@]3(C)CC[C@H]4[C@H](C)CC[C@@H]1[C@@]24OO3`, at 0.01 µM the inhibition in series [3] was 33%.

Regarding `COC12OOC3(C=C1C(=O)C(C)(C)C(=O)C2(C)C)CCN(C(=O)CCC(=O)NCC[C@H]1O[C@@H]2O[C@@]4(C)CC[C@H]5[C@H](C)CC[C@@H]([C@H]1C)[C@@]25OO4)CC3` (stereo partly drawn), in series [2], the selectivity ratio came to 144. The same compound came in with an IC50 in series [1] of 124 nM. Regarding `C[C@H]1[C@@H](CCC(=O)N2CCN(c3ccnc4cc(Cl)ccc34)CC2)O[C@@H]2O[C@@]3(C)CC[C@H]4[C@H](C)CC[C@@H]1[C@@]24OO3`, 0.01 µM produced 11% inhibition in series [3]. Turning to `COC12OOC3(C=C1C(=O)C(C)(C)C(=O)C2(C)C)CCN(C(=O)CC[C@H]1O[C@@H]2O[C@@]4(C)CC[C@H]5[C@H](C)CC[C@@H]([C@H]1C)[C@@]25OO4)CC3` (stereo partly drawn), the selectivity ratio in series [2] was determined as 16400. The compound further gave a half-maximal inhibitory concentration (IC50) in series [1] of 2.6 nM. In turn, `COC12OOC3(C=C1C(=O)C(C)(C)C(=O)C2(C)C)CCN(C(=O)CCC(=O)NCCCCN(CCCCNC(=O)CCC(=O)N1CCC2(C=C4C(=O)C(C)(C)C(=O)C(C)(C)C4(OC)OO2)CC1)C(=O)CCC(=O)NCCNc1ccnc2cc(Cl)ccc12)CC3` (stereo not drawn) had an IC50 in series [1] greater than 167 nM.

With `C[C@@H]1CC[C@H]2[C@@H](C)C(=O)O[C@@H]3O[C@@]4(C)CC[C@@H]1[C@]32OO4` [ARTEMISININ], the selectivity ratio in series [2] was greater than 4540. In series [1], this compound displayed an IC50 of 55 nM.

As usually defined, the IC50 is the concentration that gives 50% inhibition. One may read the inhibition as the relative decrease from the control value, in per cent.
